Measured values published in PubChem BioAssay (NCI).
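GI50: concentration for 50% inhibition of growth. TGI: concentration producing complete growth inhibition.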

Columns and labels:
Assay in all cases: NCI-60 cell line screen, 384-well format
HCT-15 colon = system: HCT-15 colon
OVCAR-3 ovarian = system: OVCAR-3 ovarian
BT-549 breast = system: BT-549 breast
HOP-92 NSCLC = system: HOP-92 NSCLC
NCI-H322M lung = system: NCI-H322M lung
CAKI-1 renal = system: CAKI-1 renal
ACHN renal = system: ACHN renal
NCI-H23 lung = system: NCI-H23 lung
SK-MEL-2 melanoma = system: SK-MEL-2 melanoma
NCI/ADR-RES ovarian = system: NCI/ADR-RES ovarian
SF-295 CNS = system: SF-295 CNS
786-0 renal = system: 786-0 renal
M14 melanoma = system: M14 melanoma
OVCAR-4 ovarian = system: OVCAR-4 ovarian
TK-10 renal = system: TK-10 renal
PC-3 prostate = system: PC-3 prostate
SF-268 CNS = system: SF-268 CNS
OVCAR-8 ovarian = system: OVCAR-8 ovarian
UACC-257 melanoma = system: UACC-257 melanoma
A498 renal = system: A498 renal
CCRF-CEM leukemia = system: CCRF-CEM leukemia
IGROV1 ovarian = system: IGROV1 ovarian
NCI-H460 NSCLC = system: NCI-H460 NSCLC
SR leukemia = system: SR leukemia
SNB-19 CNS = system: SNB-19 CNS
MDA-MB-435 melanoma = system: MDA-MB-435 melanoma
RPMI-8226 leukemia = system: RPMI-8226 leukemia
SNB-75 CNS = system: SNB-75 CNS
HT29 colon = system: HT29 colon
OVCAR-5 ovarian = system: OVCAR-5 ovarian
UACC-62 melanoma = system: UACC-62 melanoma
MOLT-4 leukemia = system: MOLT-4 leukemia
T-47D breast = system: T-47D breast
HCC-2998 colon = system: HCC-2998 colon
A549 NSCLC = system: A549 NSCLC
SK-OV-3 ovarian = system: SK-OV-3 ovarian
NCI-H226 lung = system: NCI-H226 lung
NCI-H522 lung = system: NCI-H522 lung
COLO 205 colon = system: COLO 205 colon
EKVX NSCLC = system: EKVX NSCLC
MCF7 breast = system: MCF7 breast
HL-60(TB) leukemia = system: HL-60(TB) leukemia
U251 glioblastoma = system: U251 glioblastoma
MALME-3M melanoma = system: MALME-3M melanoma
SK-MEL-28 melanoma = system: SK-MEL-28 melanoma
KM12 colon = system: KM12 colon
MDA-MB-231 breast = system: MDA-MB-231 breast
DU-145 prostate = system: DU-145 prostate
HOP-62 NSCLC = system: HOP-62 NSCLC
SF-539 CNS = system: SF-539 CNS
SW-620 colon = system: SW-620 colon
SK-MEL-5 melanoma = system: SK-MEL-5 melanoma
MDA-MB-468 breast = system: MDA-MB-468 breast
RXF 393 renal = system: RXF 393 renal
HS 578T breast = system: HS 578T breast

N#C[C@@H]1C(n2ccc(N)nc2=O)O[C@H](CO)[C@H]1O (some centres undefined)
GI50 (HCT-15 colon): 9.45 µM | TGI (HCT-15 colon): > 100 µM | GI50 (OVCAR-3 ovarian): 13.9 µM | TGI (OVCAR-3 ovarian): > 100 µM | GI50 (BT-549 breast): 3.56 µM | TGI (BT-549 breast): > 100 µM | GI50 (HOP-92 NSCLC): 3.17 µM | TGI (HOP-92 NSCLC): 93.8 µM | GI50 (NCI-H322M lung): 45.8 µM | TGI (NCI-H322M lung): > 100 µM | GI50 (CAKI-1 renal): 20 µM | TGI (CAKI-1 renal): > 100 µM | GI50 (ACHN renal): 14.5 µM | TGI (ACHN renal): 35.6 µM | GI50 (NCI-H23 lung): 0.569 µM | TGI (NCI-H23 lung): 12.2 µM | GI50 (SK-MEL-2 melanoma): 2.75 µM | TGI (SK-MEL-2 melanoma): 7.76 µM | GI50 (NCI/ADR-RES ovarian): 6.95 µM | TGI (NCI/ADR-RES ovarian): 32.1 µM | GI50 (SF-295 CNS): 2.22 µM | TGI (SF-295 CNS): 44.8 µM | GI50 (786-0 renal): 0.418 µM | TGI (786-0 renal): 46.8 µM | GI50 (M14 melanoma): 0.543 µM | TGI (M14 melanoma): 4.47 µM | GI50 (OVCAR-4 ovarian): > 100 µM | TGI (OVCAR-4 ovarian): > 100 µM | GI50 (TK-10 renal): > 100 µM | TGI (TK-10 renal): > 100 µM | GI50 (PC-3 prostate): 36.4 µM | TGI (PC-3 prostate): > 100 µM | GI50 (SF-268 CNS): 0.632 µM | TGI (SF-268 CNS): 27.7 µM | GI50 (OVCAR-8 ovarian): 0.962 µM | TGI (OVCAR-8 ovarian): 20.9 µM | GI50 (UACC-257 melanoma): 31.9 µM | TGI (UACC-257 melanoma): > 100 µM | GI50 (A498 renal): 0.688 µM | TGI (A498 renal): 14.4 µM | GI50 (CCRF-CEM leukemia): 0.0275 µM | TGI (CCRF-CEM leukemia): 0.125 µM | GI50 (IGROV1 ovarian): > 100 µM | TGI (IGROV1 ovarian): > 100 µM | GI50 (NCI-H460 NSCLC): 0.283 µM | TGI (NCI-H460 NSCLC): 10.5 µM | GI50 (SR leukemia): 1.92 µM | TGI (SR leukemia): 3.54 µM | GI50 (SNB-19 CNS): 0.849 µM | TGI (SNB-19 CNS): 47.4 µM | GI50 (MDA-MB-435 melanoma): 85 µM | TGI (MDA-MB-435 melanoma): > 100 µM | GI50 (RPMI-8226 leukemia): 6.73 µM | TGI (RPMI-8226 leukemia): 55.9 µM | GI50 (SNB-75 CNS): 13.8 µM | TGI (SNB-75 CNS): 85.8 µM | GI50 (HT29 colon): > 100 µM | TGI (HT29 colon): > 100 µM | GI50 (OVCAR-5 ovarian): 37.1 µM | TGI (OVCAR-5 ovarian): > 100 µM | GI50 (UACC-62 melanoma): 3.35 µM | TGI (UACC-62 melanoma): 34.4 µM | TGI (MOLT-4 leukemia): 0.0141 µM | GI50 (T-47D breast): > 100 µM | TGI (T-47D breast): > 100 µM | GI50 (HCC-2998 colon): 0.893 µM | TGI (HCC-2998 colon): 18.4 µM | GI50 (A549 NSCLC): 1.25 µM | TGI (A549 NSCLC): 71 µM | GI50 (SK-OV-3 ovarian): 1.32 µM | TGI (SK-OV-3 ovarian): 21.9 µM | GI50 (NCI-H226 lung): 3.7 µM | TGI (NCI-H226 lung): 32.4 µM | GI50 (NCI-H522 lung): 2.03 µM | TGI (NCI-H522 lung): 79.6 µM | GI50 (COLO 205 colon): 2.28 µM | TGI (COLO 205 colon): 17.7 µM | GI50 (EKVX NSCLC): > 100 µM | TGI (EKVX NSCLC): > 100 µM | GI50 (MCF7 breast): 1.58 µM | TGI (MCF7 breast): > 100 µM | GI50 (HL-60(TB) leukemia): 0.315 µM | TGI (HL-60(TB) leukemia): 0.728 µM | GI50 (U251 glioblastoma): 3.78 µM | TGI (U251 glioblastoma): 67.7 µM | GI50 (MALME-3M melanoma): 1.21 µM | TGI (MALME-3M melanoma): 7.34 µM | GI50 (SK-MEL-28 melanoma): 2.34 µM | TGI (SK-MEL-28 melanoma): 9.71 µM | GI50 (KM12 colon): 8.14 µM | TGI (KM12 colon): > 100 µM | GI50 (MDA-MB-231 breast): 17.1 µM | TGI (MDA-MB-231 breast): > 100 µM | GI50 (DU-145 prostate): 0.54 µM | TGI (DU-145 prostate): 35.3 µM | GI50 (HOP-62 NSCLC): 0.34 µM | TGI (HOP-62 NSCLC): 16.7 µM | GI50 (SF-539 CNS): 4.18 µM | TGI (SF-539 CNS): > 100 µM | GI50 (SW-620 colon): 34.9 µM | TGI (SW-620 colon): > 100 µM | GI50 (SK-MEL-5 melanoma): 3.52 µM | TGI (SK-MEL-5 melanoma): 44.4 µM | GI50 (MDA-MB-468 breast): 0.314 µM | TGI (MDA-MB-468 breast): 0.824 µM | GI50 (RXF 393 renal): 24.4 µM | TGI (RXF 393 renal): 70.3 µM | GI50 (HS 578T breast): 2.01 µM | TGI (HS 578T breast): > 100 µM
